As usually defined, the inhibition is the change of the read-out against control, counted positive when it falls.

In assay [1] the target is T1, Thromboxane A2 receptor (Homo sapiens) (UniProt P21731).
T1 sequence (whole entry): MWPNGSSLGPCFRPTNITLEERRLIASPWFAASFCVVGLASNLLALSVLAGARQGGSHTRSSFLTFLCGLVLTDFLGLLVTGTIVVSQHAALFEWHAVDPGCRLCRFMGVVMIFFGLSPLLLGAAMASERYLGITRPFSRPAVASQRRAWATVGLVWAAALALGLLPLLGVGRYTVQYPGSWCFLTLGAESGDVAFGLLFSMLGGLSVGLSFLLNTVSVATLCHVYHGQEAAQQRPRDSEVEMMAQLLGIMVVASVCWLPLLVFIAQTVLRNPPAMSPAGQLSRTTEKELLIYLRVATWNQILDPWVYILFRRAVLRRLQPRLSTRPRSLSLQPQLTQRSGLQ
The assay can be described thus: Binding affinity for thromboxane A2 receptor by measuring ability to displace [3H]U-46619 from guinea pig platelets at 1 uM. To be noted: Cavia porcellus, target entry is the homologue from another species.

Assay [2] concerns the target T1, Thromboxane A2 receptor (Homo sapiens). The assay can be described thus: Binding affinity for thromboxane A2 receptor by measuring its ability to displace [3H]U-46619 from guinea pig platelets at 0.1 uM. The settings on record: Cavia porcellus, target entry is the homologue from another species.
For assay [3] the target is unchanged. The assay is described as follows: Inhibitory effect against binding thromboxane A2 receptor on guinea pig platelets using [3H]U-46619 as radioligand at 1 uM concentration. To be noted: Cavia porcellus, target entry is the homologue from another species.
Assay [4] deals with T2, Thromboxane-A synthase (Homo sapiens) (UniProt P24557).
T2 sequence (whole entry): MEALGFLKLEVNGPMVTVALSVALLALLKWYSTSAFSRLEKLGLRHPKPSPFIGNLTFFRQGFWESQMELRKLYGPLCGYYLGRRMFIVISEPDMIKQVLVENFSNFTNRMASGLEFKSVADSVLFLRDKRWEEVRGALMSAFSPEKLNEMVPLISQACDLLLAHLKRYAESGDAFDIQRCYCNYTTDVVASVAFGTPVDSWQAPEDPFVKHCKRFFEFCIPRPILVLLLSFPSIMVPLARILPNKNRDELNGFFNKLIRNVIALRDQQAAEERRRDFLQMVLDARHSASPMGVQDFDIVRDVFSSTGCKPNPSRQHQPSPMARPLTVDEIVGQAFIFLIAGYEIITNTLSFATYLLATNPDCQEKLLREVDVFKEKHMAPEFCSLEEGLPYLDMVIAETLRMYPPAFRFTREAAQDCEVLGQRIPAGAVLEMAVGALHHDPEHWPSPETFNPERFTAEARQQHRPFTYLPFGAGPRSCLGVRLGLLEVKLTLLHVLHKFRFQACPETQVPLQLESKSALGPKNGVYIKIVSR
The assay can be described thus: Inhibitory activity against thromboxane A2 synthase obtained from bovine platelet microsomes at 10 uM. To be noted: Bos taurus, target entry is the homologue from another species.

Assay [5] concerns Thromboxane-A synthase (Bos taurus). The assay can be described thus: Inhibitory effect against thromboxane A2 synthase from bovine platelets at 10 uM concentration.

Regarding `O=C(O)c1ccc2c(c1)C(SCCNS(=O)(=O)c1cccc3cccnc13)c1ccccc1CO2` (stereo not drawn), the inhibition in assay [1] came to 90%; in assay [2] it was 44%; in assay [3], 90%; in assay [4], 63%; in assay [5], 63%.
Turning to `O=C(O)Cc1ccc2c(c1)C(SCCNS(=O)(=O)c1ccccc1)c1ccccc1CO2` (stereo not drawn), the values for the inhibition in assay [1], in assay [2] and in assay [4] were 84%, 30% and 13%, respectively.
On to `O=C(O)c1ccc2c(c1)C(SCCNS(=O)(=O)c1ccccc1)c1ccccc1C=C2` (stereo not drawn), for which the inhibition in assay [1] was found to be 97%; in assay [2] it was 67%; in assay [3] it was 97%; in assay [4], 74%; in assay [5], 74%.
On to `COc1ccc(OC)c(S(=O)(=O)NCCSC2c3ccccc3COc3ccc(C(=O)O)cc32)c1` (stereo not drawn), for which the inhibition in assay [1] worked out at 92%; in assay [2], 66%; in assay [3] it was 92%; in assay [4], 62%; in assay [5], 62%.
With `O=C(O)c1ccc2c(c1)C(SCCNS(=O)(=O)c1ccccc1[N+](=O)[O-])c1ccccc1CO2` (stereo not drawn), the inhibition in assay [1] was found to be 99%; in assay [2], 72%; in assay [3] it was 99%; in assay [4], 72%; in assay [5] it was 79%.
Regarding `COc1ccc(S(=O)(=O)NCCSC2c3ccccc3COc3ccc(C(=O)O)cc32)cc1OC` (stereo not drawn), the inhibition in assay [1] stood at 91%; in assay [2], 49%; in assay [3], 91%; in assay [4] it was 70%; in assay [5], 70%.
For `Cc1ccsc1C(=O)NCCSC1c2ccccc2COc2ccc(C(=O)O)cc21` (stereo not drawn), the inhibition in assay [1] turned out to be 94%; in assay [2], 81%; in assay [3] it was 94%; in assay [4] it was 79%; in assay [5] it was 79%.
Consider `CN(CCSC1c2ccccc2COc2ccc(C(=O)O)cc21)S(=O)(=O)c1ccccc1` (stereo not drawn), for which the values for the inhibition in assay [1], in assay [2] and in assay [3] were 92%, 73% and 92%, respectively.
`O=C(O)c1ccc2c(c1)C(SCCNS(=O)(=O)c1ccc([N+](=O)[O-])cc1)c1ccccc1CO2` (stereo not drawn): the inhibition in assay [1] came to 90%; in assay [2] it was 58%; in assay [3], 90%; in assay [4] it was 41%; in assay [5], 41%.
As to `O=C(O)c1ccc2c(c1)C(SCCNS(=O)(=O)c1cccnc1)c1ccccc1CO2` (stereo not drawn), the inhibition in assay [1] was found to be 93%; in assay [2] it was 67%; in assay [3], 93%.
As to `COc1cccc(OC)c1C(=O)NCCSC1c2ccccc2COc2ccc(C(=O)O)cc21` (stereo not drawn), the inhibition amounted to 72% in assay [1], 20% in assay [2] and 72% in assay [3].
Take `O=C(NCCSC1c2ccccc2COc2ccc(C(=O)O)cc21)Nc1ccccc1` (stereo not drawn): the inhibition was 98% in assay [1]; 67% in assay [2]; 98% in assay [3]; 58% in assay [4]; 58% in assay [5].
As for `Cc1ccc(S(=O)(=O)NCCSC2c3ccccc3COc3ccc(C(=O)O)cc32)cc1` (stereo not drawn), the inhibition in assay [1] is 93%; in assay [2], 76%; in assay [3] it was 93%; in assay [4], 77%; in assay [5], 77%.
On to `O=C(O)c1ccc2c(c1)C(SCCNS(=O)(=O)c1ccc(C(F)(F)F)cc1)c1ccccc1CO2` (stereo not drawn), for which the inhibition in assay [1] was 92%; in assay [2], 70%; in assay [3] it was 92%; in assay [4], -9%; in assay [5] it was -9%.
Consider `O=C(O)c1ccc2c(c1)C(SCCNS(=O)(=O)c1ccc(F)cc1)c1ccccc1CO2` (stereo not drawn), for which the inhibition in assay [1] is 93%; in assay [2], 61%; in assay [3], 93%; in assay [4] it was 33%; in assay [5] it was 33%.
For the molecule `O=C(NCCSC1c2ccccc2COc2ccc(C(=O)O)cc21)NCc1ccccc1` (stereo not drawn), the inhibition in assay [1] amounted to 87%; in assay [2] it was 47%; in assay [3], 87%; in assay [4] it was 41%; in assay [5], 41%.
On to `Cc1ccc2c(c1)C(SCCNS(=O)(=O)c1ccccc1)c1ccccc1CO2` (stereo not drawn), for which the inhibition is 27% in assay [1]; 1% in assay [2]; 27% in assay [3]; -10% in assay [4]; -10% in assay [5].
`O=C(O)c1ccc2c(c1)C(SCCNS(=O)(=O)c1ccccc1)c1ccccc1CC2` (stereo not drawn): the inhibition was 95% in assay [1]; 71% in assay [2]; 95% in assay [3]; 68% in assay [4]; 68% in assay [5].
As for `O=C(O)c1ccc2c(c1)C(SCCNS(=O)(=O)c1ccccc1)c1ccccc1OC2` (stereo not drawn), the inhibition was 64% in assay [1]; 21% in assay [2]; 64% in assay [3]; 53% in assay [4]; 53% in assay [5].
`O=C(O)c1ccc2c(c1)OCc1ccccc1C2SCCNS(=O)(=O)c1ccccc1` (stereo not drawn): the inhibition in assay [1] is 36%; in assay [2], -3%; in assay [3], 36%; in assay [4] it was 96%; in assay [5], 96%.
`O=C(O)c1ccc2c(c1)C(SCCNS(=O)(=O)c1cccc([N+](=O)[O-])c1)c1ccccc1CO2` (stereo not drawn): the inhibition in assay [1] is 93%; in assay [2] it was 83%; in assay [3], 93%; in assay [4], 54%; in assay [5], 54%.
On to `COc1ccc(C(=O)NCCSC2c3ccccc3COc3ccc(C(=O)O)cc32)c(OC)c1OC` (stereo not drawn), for which the inhibition in assay [1] came out at 97%; in assay [2], 82%; in assay [3] it was 97%.
For the molecule `O=C(O)c1ccc2c(c1)C(SCCNC(=O)C1CCCCC1)c1ccccc1CO2` (stereo not drawn), the inhibition in assay [1] was found to be 66%; in assay [2], 20%; in assay [3], 66%; in assay [4], 19%; in assay [5], 19%.
Regarding `COc1cc(C(=O)NCCSC2c3ccccc3COc3ccc(C(=O)O)cc32)cc(OC)c1OC` (stereo not drawn), the inhibition in assay [1] was found to be 87%; in assay [2] it was 50%; in assay [3], 87%; in assay [4] it was 92%; in assay [5], 92%.
In the case of `O=C(O)c1ccc2c(c1)C(SCCNS(=O)(=O)c1ccc(Cl)cc1)c1ccccc1CO2` (stereo not drawn), the inhibition in assay [1] came out at 94%; in assay [2], 64%; in assay [3], 94%; in assay [4] it was 79%; in assay [5], 79%.
Consider `CCCCCC(=O)NCCSC1c2ccccc2COc2ccc(C(=O)O)cc21` (stereo not drawn), for which the inhibition in assay [1] is 88%; in assay [2], 51%; in assay [3], 88%; in assay [4] it was 4%; in assay [5] it was 4%.
Turning to `O=C(O)c1cccc(C(SCCNS(=O)(=O)c2ccccc2)c2ccccc2)c1` (stereo not drawn), the inhibition in assay [1] turned out to be 85%; in assay [2], 41%; in assay [3], 85%; in assay [4], 19%; in assay [5], 19%.
Consider `COc1ccccc1C(=O)NCCSC1c2ccccc2COc2ccc(C(=O)O)cc21` (stereo not drawn), for which the inhibition came to 97% in assay [1], 86% in assay [2] and 97% in assay [3].

Source of the values: ChEMBL document CHEMBL1126121, “Non-prostanoid thromboxane A2 receptor antagonists with a dibenzoxepin ring system. 1” (J Med Chem, 1992).
